# Results reported in US11952349B2, “Anti-cancer nuclear hormone receptor-targeting compounds” (Nuvation Bio Inc., priority 2019, dated 2024).
# Substitutions are numbered along the chain they refer to.
# Key:
# [1] = tested on: LNCap cells; assay: Cell viability assay (CellTiterGlo, 6 days) LNCap; format: cell-based; details: Homo sapiens, 144 h, Table 8
# Description: Cell viability assay: LNCap, 22Rv1, and T47D cells were seeded at a density of 1500-2000 cells/well in 96 well plates, and a ‘T0’ (timepoint 0) was included along with the assay plate. The plates were then incubated at 37° C., 5% CO2 in a cell culture incubator overnight. On the next day, the ‘T0’ plate was assayed using CellTiterGlo (Promega, Inc) according to the manufacturer's instructions. The appropriate compounds were diluted in DMSO and added to the assay plate (final DMSO concentration of 0.2%) on the next day. The assay plates were incubated for 6 days at 37° C., 5% CO2. After the incubation period, the plates were assayed using CellTiterGlo (Promega, Inc) according to the manufacturer's instructions and luminescence was read on the EnVision plate reader. Inhibition the tested compounds was determined by the following formula: Inhibition rate (%)=(1−(RLU compound−RLU day0)/(RLU control−RLU day0))*100%. GraphPadPrism was used to analyze the data and determine absolute IC50 values.
# [2] = target: T1, AR, cytosol from LnCaP cells (Homo sapiens, UniProt P10275, T878A); assay: AR binding assay, 3H-R1881 (Biological Example 2); details: Table 8; 3H-R1881 1 nM; read-out: AR binding
# T1 construct: AR in LNCaP cytosol was used; endogenous in cells; host or cells: LNCaP cells (cytosol)
# T1 sequence (P10275 1-920 T878A): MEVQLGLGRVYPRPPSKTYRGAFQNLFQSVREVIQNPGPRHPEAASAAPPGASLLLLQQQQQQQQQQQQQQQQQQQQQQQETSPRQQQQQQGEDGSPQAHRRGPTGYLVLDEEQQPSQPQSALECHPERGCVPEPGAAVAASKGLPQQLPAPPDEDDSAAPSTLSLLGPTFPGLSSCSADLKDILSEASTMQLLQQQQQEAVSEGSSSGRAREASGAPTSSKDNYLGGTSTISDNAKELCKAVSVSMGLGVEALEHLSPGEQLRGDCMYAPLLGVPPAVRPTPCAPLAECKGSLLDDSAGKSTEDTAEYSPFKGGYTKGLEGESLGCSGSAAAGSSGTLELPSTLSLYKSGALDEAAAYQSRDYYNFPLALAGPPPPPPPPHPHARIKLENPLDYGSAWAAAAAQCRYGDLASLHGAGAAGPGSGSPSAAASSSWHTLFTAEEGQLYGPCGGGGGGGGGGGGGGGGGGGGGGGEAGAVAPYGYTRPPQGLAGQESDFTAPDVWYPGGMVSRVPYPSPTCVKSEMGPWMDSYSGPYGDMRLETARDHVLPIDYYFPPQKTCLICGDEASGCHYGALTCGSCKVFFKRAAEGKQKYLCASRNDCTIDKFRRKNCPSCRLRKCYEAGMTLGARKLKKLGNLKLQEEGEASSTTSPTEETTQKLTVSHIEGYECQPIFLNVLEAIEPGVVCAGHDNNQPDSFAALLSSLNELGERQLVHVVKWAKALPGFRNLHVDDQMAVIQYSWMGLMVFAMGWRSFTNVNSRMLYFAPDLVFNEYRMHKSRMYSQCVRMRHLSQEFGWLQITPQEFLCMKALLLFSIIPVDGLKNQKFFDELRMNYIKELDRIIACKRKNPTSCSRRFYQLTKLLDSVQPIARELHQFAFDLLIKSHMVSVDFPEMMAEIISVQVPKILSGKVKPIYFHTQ
# Description: AR binding assay: To assess AR binding, test compound (top dose […], 4 fold serial dilution, 8 point dose response) and control (progesterone) were transferred to the assay plate. Cytosol from LnCaP cells was added to the plate, followed by addition of radiolabeled ^3H-R1881 at a final concentration of 1 nM. The plate was sealed, and the reaction was incubated at 300 rpm at 4° C. for 24 hrs. Radioligand absorption buffer (10 mM Tris-HCl, pH 7.4; 1.5 mM EDTA; 1 mM DTT; 0.25% charcoal; 0.0025% dextran) was then added to the plate, mixed, and incubated at 4° C. for 15 minutes. The plate was then centrifuged at 3000 rpm for 30 minutes at 4° C. The supernatant was transferred to the scint-tube and Tri-carb was used for scintillation counting. The data was analyzed using GraphPadPrism v5.0 and binding IC50 was determined as the concentration where 50% inhibition of radioligand binding was observed.
# [3] = target: T2, full-length androgen receptor (Homo sapiens, UniProt P10275); assay: AR antagonism assay (HEK293, testosterone 1 nM, Steady-glo); format: cell-based; details: Table 8; testosterone 1 nM; read-out: AR antagonism
# T2 construct: HEK293 cells stably expressing the full-length androgen receptor; expressed in transfected cells
# T2 sequence (P10275 1-920): T1 sequence (P10275 1-920 T878A) with A878T
# Description: AR antagonism assay: To evaluate AR antagonist activity, test compound was added to the assay plate (top dose 10 μM, 3 fold serial dilution, 10 point dose response). HEK293 cells stably expressing the full-length androgen receptor were seeded at a density of 20000 cells/well in the assay plate. The assay plate was then incubated at room temperature for 10 minutes and at 37° C., 5% CO2 for 20 minutes. Testosterone was added to the assay plate at 1 nM final concentration and the assay plate was incubated at 37° C., 5% CO2 for 20 h. After the incubation period, Steady-glo was added to the assay plate and mixed at room temperature for 20 minutes on an orbital shaker, before reading out on the EnVision plate reader.
smiles,measurement,setting,value
"CC#C[C@]1(O)CC[C@H]2[C@@H]3CCC4=CC(=O)CCC4=C3[C@@H](c3ccc(N(C)CCCCCC(=O)NCCOCCOCC(=O)N4CCN(C(=O)c5cc(Cc6n[nH]c(=O)c7ccccc67)ccc5F)CC4)cc3)C[C@@]21C [Compound 1429, N-(2-(2-(2-(4-(2-fluoro-5-((4-oxo-3,4-dihydrophthalazin-1-yl)methyl)benzoyl)piperazin-1-yl)-2-oxoethoxy)ethoxy)ethyl)-6-((4-((8S,11R,13S,14S,17S)-17-hydroxy-13-methyl-3-oxo-17-(prop-1-ynyl)-2,3,6,7,8,11,12,13,14,15,16,17-dodecahydro-1H-cyclopenta[a]phenanthren-11-yl)phenyl)(methyl)amino)hexanamide]",IC50,[1],> 10 µM
same,IC50,[2],0.01 to 0.1 µM
same,IC50,[3],> 10 µM
